ChEMBL document CHEMBL1148822, “Principal component analysis differentiates the receptor binding profiles of three antipsychotic drug candidates from current antipsychotic drugs” (J Med Chem, 2007)
Calls of active or inactive are those of the source.

Assays:
[1] = biological target: 5-hydroxytryptamine receptor 2B (Homo sapiens, UniProt P41595); settings: CHO
Description: Displacement of [3H]LSD from 5HT2B receptor expressed in CHO cells

[2] = biological target: T1, 5-hydroxytryptamine receptor 2C (Homo sapiens) (UniProt P28335); settings: CHO
T1 sequence (whole entry): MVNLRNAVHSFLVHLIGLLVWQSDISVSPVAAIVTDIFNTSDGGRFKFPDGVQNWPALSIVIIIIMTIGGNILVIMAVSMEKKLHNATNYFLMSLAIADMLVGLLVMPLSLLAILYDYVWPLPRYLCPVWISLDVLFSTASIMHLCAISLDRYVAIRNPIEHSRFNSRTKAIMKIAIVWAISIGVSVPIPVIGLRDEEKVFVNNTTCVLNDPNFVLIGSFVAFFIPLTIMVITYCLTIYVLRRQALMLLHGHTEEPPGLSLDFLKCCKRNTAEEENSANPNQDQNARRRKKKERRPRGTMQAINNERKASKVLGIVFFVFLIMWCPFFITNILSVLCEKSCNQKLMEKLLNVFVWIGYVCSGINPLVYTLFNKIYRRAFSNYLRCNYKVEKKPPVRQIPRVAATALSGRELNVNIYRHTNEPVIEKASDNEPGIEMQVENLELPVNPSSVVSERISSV
Description: Displacement of [3H]mesulergine from 5HT2C receptor expressed in CHO cells

[3] = biological target: 5-hydroxytryptamine receptor 6 (Homo sapiens, UniProt P50406); settings: HEK293
Description: Displacement of [3H]LSD from human 5HT6 receptor expressed in HEK293 cells

Measured: Activity

Chain of 5-hydroxytryptamine receptor 6 (P50406 whole entry): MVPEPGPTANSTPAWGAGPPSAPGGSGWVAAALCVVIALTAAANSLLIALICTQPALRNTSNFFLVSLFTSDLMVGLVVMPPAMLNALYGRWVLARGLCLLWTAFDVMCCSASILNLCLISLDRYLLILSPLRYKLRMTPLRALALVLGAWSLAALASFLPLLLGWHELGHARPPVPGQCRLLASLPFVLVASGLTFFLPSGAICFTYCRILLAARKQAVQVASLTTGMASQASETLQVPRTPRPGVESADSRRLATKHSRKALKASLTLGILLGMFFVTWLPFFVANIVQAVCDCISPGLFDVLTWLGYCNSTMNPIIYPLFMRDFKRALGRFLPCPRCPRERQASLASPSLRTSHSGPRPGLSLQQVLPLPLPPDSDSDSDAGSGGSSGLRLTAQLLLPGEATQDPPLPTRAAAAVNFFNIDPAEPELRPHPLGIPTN
Chain of 5-hydroxytryptamine receptor 2B (P41595 whole entry): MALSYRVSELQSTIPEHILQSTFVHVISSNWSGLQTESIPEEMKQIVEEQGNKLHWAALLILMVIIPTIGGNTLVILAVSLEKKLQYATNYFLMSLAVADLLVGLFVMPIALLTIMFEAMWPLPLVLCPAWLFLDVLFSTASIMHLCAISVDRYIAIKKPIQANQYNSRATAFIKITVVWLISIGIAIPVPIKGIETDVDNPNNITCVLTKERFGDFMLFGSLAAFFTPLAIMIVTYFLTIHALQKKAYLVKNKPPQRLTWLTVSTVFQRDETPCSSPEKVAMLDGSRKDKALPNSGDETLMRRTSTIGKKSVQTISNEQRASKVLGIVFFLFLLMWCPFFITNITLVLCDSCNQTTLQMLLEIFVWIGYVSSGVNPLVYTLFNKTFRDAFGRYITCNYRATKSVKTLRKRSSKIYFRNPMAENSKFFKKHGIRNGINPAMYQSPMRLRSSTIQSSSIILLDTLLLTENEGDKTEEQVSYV

O=C(CCCN1CCC(O)(c2ccc(Cl)cc2)CC1)c1ccc(F)cc1
inactive: all assays above
